How the values were obtained:
Hs-578T = assay: Antitumor activity against human Hs-578T cells incubated for 48 hrs; assay type: functional
BMDM = assay: Growth inhibition of mouse BMDMs; assay type: functional, cell-based
Cannabinoid receptor 2 = Cannabinoid receptor 2 (Homo sapiens, UniProt P34972); assay: Inhibition of CB2 (unknown origin); assay type: single protein
A549 = assay: Antitumor activity against human A549 cells incubated for 48 hrs; assay type: functional
MDA-MB-231 [1] = assay: Antitumor activity against human MDA-MB-231 cells incubated for 48 hrs in presence of 1.5% BSA by Celltiter Blue reagent based 3D microtiter assay; assay type: functional
MDA-MB-231 [2] = assay: Antitumor activity against human MDA-MB-231 cells incubated for 48 hrs by Celltiter Blue reagent based 3D microtiter assay; assay type: functional
HCT-116 = assay: Antitumor activity against human HCT-116 cells incubated for 48 hrs; assay type: functional
MDA-MB-231 [3] = assay: Antitumor activity against human MDA-MB-231 cells incubated for 48 hrs by Celltiter Blue reagent based 2D microtiter assay; assay type: functional
MDA-MB-231 [4] = assay: Antitumor activity against human MDA-MB-231 cells incubated for 48 hrs in presence of 1.5% BSA by Celltiter Blue reagent based 2D microtiter assay; assay type: functional
[5] = Intrinsic clearance in human hepatocytes measured per million cells incubated for 120 mins by LC-MS/MS analysis; assay type: ADME, cell-based, Hepatocyte; conditions: read-out: CLH

Chain of Cannabinoid receptor 2 (P34972 whole entry): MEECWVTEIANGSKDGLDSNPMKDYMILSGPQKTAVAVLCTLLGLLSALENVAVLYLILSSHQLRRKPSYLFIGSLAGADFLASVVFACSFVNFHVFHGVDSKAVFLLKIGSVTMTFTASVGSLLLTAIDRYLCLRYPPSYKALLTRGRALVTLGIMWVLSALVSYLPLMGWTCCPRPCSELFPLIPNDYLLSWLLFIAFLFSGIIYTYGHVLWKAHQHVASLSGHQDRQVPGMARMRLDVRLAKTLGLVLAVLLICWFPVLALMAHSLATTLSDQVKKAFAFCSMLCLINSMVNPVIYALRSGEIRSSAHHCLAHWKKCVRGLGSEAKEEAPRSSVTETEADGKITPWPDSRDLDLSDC

[2H]C([2H])([2H])Oc1cc(C(=O)Nc2cc3c(cc2Oc2cc(C)cc(C)c2)C(=O)N[C@@H](CC(=O)N(OC([2H])([2H])[2H])C([2H])([2H])[2H])C(=O)N3)c(Br)c(OC([2H])([2H])[2H])c1OC([2H])([2H])[2H]
GI50 (Hs-578T): < 5 nM | IC50 (BMDM): 1420 nM | IC50 (Cannabinoid receptor 2): 4700 nM | GI50 (A549): < 5 nM | GI50 (MDA-MB-231 [1]): 9.47 nM | GI50 (MDA-MB-231 [2]): 2.12 nM | GI50 (HCT-116): < 5 nM | GI50 (MDA-MB-231 [3]): < 1 nM | GI50 (MDA-MB-231 [4]): < 1 nM | hepatocyte CLint [5]: 8.5 µL/min/1e6 cells

— ChEMBL document CHEMBL5550190 (J Med Chem, 2024)
